Experimental data published in US12460207B2, “Inhibiting APE2 expression in a subject treated with a drug agent that causes increased APE2 expression” (The Cleveland Clinic Foundation, priority 2021, dated 2025).
d = 2'-deoxy (DNA); m = 2'-O-methyl

Assays:
APE2 [1] = assay: Western blot of kidney protein expression in platinum drug-treated mice: APE2; format: in vivo, mouse; conditions: for APE2 expression in kidney cells: 40 mg/kg single intraperitoneal dose
Protocol: (§1) Ten-week-old wild-type C57BL/6J mice weighing 25-28 g were purchased from the Jackson Laboratory. […] An identical volume of saline (0.9% NaCl) was administered intraperitoneally to control mice.
(§2) Total protein samples were isolated with RIPA buffer, fractionated on 4%-12% Bis-Tris polyacrylamide gels (Thermo Fisher Scientific), and electroblotted onto PVDF membranes (Millipore). Membranes were blocked with 5% nonfat milk and incubated overnight with rabbit anti-APE2 polyclonal antibody (Bioss, #bs-6587R), rabbit anti-APE1 polyclonal antibody (Abnova, #H00000328-D02), mouse anti-LIG3 monoclonal antibody (Santa Cruz Biotechnology, #sc-56089), rabbit anti-MRE11 monoclonal antibody (Cell Signaling Technology, #4847), rabbit anti-CtIP polyclonal antibody (Bethyl Laboratories, #300-488A), or goat anti-β-actin polyclonal antibody (Santa Cruz Biotechnology, #sc-1615) overnight at 4° C. Membranes were then washed and incubated with HRP-linked anti-rabbit IgG secondary antibody (Cell Signaling Technology, #7074) or HRP-linked anti-mouse IgG secondary antibody (Cell Signaling Technology, #7076S). […] Detection by chemiluminescence was carried out by means of a SuperSignal West Femto Maximum Sensitivity Substrate kit (Thermo Fisher Scientific) with β-actin as a loading control.

APE1 = assay: Western blot of kidney protein expression in cisplatin-treated mice: APE1; format: in vivo, mouse; conditions: cisplatin 15 mg/kg, 3 days after treatment
Protocol: as §1, §2

LIG3 = assay: Western blot of kidney protein expression in cisplatin-treated mice: LIG3; format: in vivo, mouse; conditions: cisplatin 15 mg/kg, 3 days after treatment
Protocol: as §1, §2

MRE11 = assay: Western blot of kidney protein expression in cisplatin-treated mice: MRE11; format: in vivo, mouse; conditions: cisplatin 15 mg/kg, 3 days after treatment
Protocol: as §1, §2

CTIP = assay: Western blot of kidney protein expression in cisplatin-treated mice: CTIP; format: in vivo, mouse; conditions: cisplatin 15 mg/kg, 3 days after treatment
Protocol: as §1, §2

PCNA = assay: Western blot of kidney protein expression in cisplatin-treated mice: PCNA; format: in vivo, mouse; conditions: cisplatin 15 mg/kg, 3 days after treatment
APE2 [2] = assay: IHC staining for APE2 in kidney biopsies of C-AKI patients; format: in vivo, human; conditions: two patients with C-AKI versus normal kidney biopsies
Protocol: Kidney specimens were obtained from healthy donors and from cisplatin-induced AKI patients in accordance with Cleveland Clinic Foundation Institutional Review Board approval requirements, and written informed consent was obtained in compliance with the Helsinki. Formalin-fixed paraffin-embedded tissue sections were de-paraffinized and then incubated with rabbit anti-APE2 polyclonal antibody (Bioss, bs-6587R), rabbit anti-cleaved caspase-3monoclonal antibody (Cell Signaling Technology, #9664S), rabbit anti-MYH9 antibody (GeneTex GTX113236), or rabbit anti-phosphor-histone H2A.X(Ser139) polyclonal antibody (Cell Signaling Technology, #2577) at 4° C. overnight. After incubation with horseradish peroxidase (HRP)-conjugated goat anti-rabbit secondary antibody, signal was detected using a DAB Substrate kit (Abcam, ab64238) according the manufacturer's instructions. Images were obtained by means of a phase-contrast microscope (Leica DM2000 LED) and a digital camera (Leica DMC 2900).

APE2 [3] = assay: Immunofluorescence of APE2 subcellular localization in HK2 cells after cisplatin; format: cell-based, human; conditions: HK2 cells treated with cisplatin
Protocol: (§3) HEK293T and HK2 cells were purchased from the ATCC. Mouse anti-Prominin-1 MicroBeads (130-092-333, Miltenyi Biotec) were used to isolate PTCs from APE2LSL/− CreERT2+/− mice, Cre-ERT2+/− mice, C57B6 mice, and APE2 KO mice. The primary PTCs were cultured in DMEM/Nutrient Mixture F-12 (DMEM/F12) containing 10% FBS, 100 U/mL penicillin, and 100 μg/mL streptomycin. HEK293T and HK2 cells were routinely genotyped using the Human Cell Line Genotyping System (Promega) and were used within their 6 times passage. Mouse PTCs were genotyped using the primer for transgenic mice and were used within their 3 times passage. All cell lines were used Mycoplasma tested negative.
(§4) Immunofluorescence staining was performed as described previously (20). The slides of HK2 cells were incubated sequentially with rabbit anti-APE2 antibody (GeneTex), goat anti-rabbit Alexa Fluor 488-conjugated secondary antibody (Abcam), mouse anti-MYH9 antibody (GeneTex), goat anti-mouse Alexa Fluor 647-conjugated secondary antibody (Abcam), and rabbit anti-COXIV antibody Alexa Fluor […]-conjugated antibody (Santa Cruz Biotechnology). […]

APE2 [4] = assay: Immunofluorescence of APE2 subcellular localization in primary mouse PTCs after cisplatin; format: cell-based; conditions: primary mouse PTCs treated with cisplatin
Protocol: as §3, §4

[5] = tested on: wild-type (WT) and APE2 KO mice; conditions: mouse, in vivo, 15 mg/kg
Protocol: as §1
(§5) APE2 conditional transgenic mice were generated by inserting a transcription-translation STOP cassette flanked by LoxP sites (LSL) at the start of the APE2 locus. An FRT-mediated recombination ColA1 3′ untranslated region locus was used first to generate APE2LSL mice. The STOP cassette prevents expression of the APE2 gene. To remove the STOP cassette and activate APE2 expression in vivo, the APE2LSL mice were mated with Rosa26-Cre-Estrogen Receptor-T2 (CreERT2+/−) mice (18; #8463, The Jackson Laboratory), in which the ERT moiety retains Cre recombinase activity in the cytoplasm until tamoxifen administration releases this block and promotes recombination of genomic LoxP sites. Three-week-old APE2LSL/+CreERT2+/− mice and CreERT2+/− mice were injected intraperitoneally with 10 mg/kg 4-OH-tamoxifen for 3 consecutive days. Creatinine and EPO were measured using mouse creatinine (Crystal Chem) and EPO (R&D Systems) ELISA kits. We used heterozygous male (APE2−/Y) mice (12) bearing a mutated APE2 allele on the X chromosome, in which a genomic region from the 3′-region of its intron 5 to the 5′-region in exon 6 was replaced by a neo cassette by crossing heterozygous APE2 female (APE2−/+) mice with wild-type C57BL/6 mice. […] Using this breeding strategy, there is the potential risk and uncertainty of interference with the germline DNA in the male and female APE2 knockout progeny because APE2 has already been knocked out in the male parent (APE2−/Y) and because the function of APE2 is to be responsible for DNA damage repair (13). All mice were of C57B6 genetic background. All experiments involving animals were pre-approved by the Cleveland Clinic IACUC (Institutional Animal Care and Use Committee).
(§6) Mouse kidney biopsy specimens were submerged in 2.5% EM grade glutaraldehyde in 2.5% glutaraldehyde/4% paraformaldehyde in 0.2 mol/L sodium cacodylate buffer (pH 7.4) at 4° C. immediately after sectioning and fixed at 4° C. overnight. After washing three times for 5 minutes in sodium cacodylate buffer (0.2 mol/L, pH 7.3), kidney fragments were fixed in 1% aqueous osmium tetroxide for 60 minutes at 4° C., then washed twice for 5 minutes with sodium cacodylate buffer and rinsed once with maleate buffer (pH 5.1, 5 minutes). After changing to 1% uranyl acetate in maleate buffer, the samples were stained for 60 minutes; the uranyl acetate was removed. The samples were then washed three times for 5 minutes with maleate buffer and then dehydrated with ascending grades of ethanol, and finally embedded in Epon resin (Electron Microscopy Science). […]

primary PTCs = assay: Oxygen consumption (Seahorse Cell Mito Stress) of PTCs from cisplatin-treated mice; format: cell-based, mouse; conditions: PTCs of cisplatin-treated APE2 KO mice versus WT
Protocol: as §3
The functional activity of PTC mitochondria was measured by using a Seahorse XF24 Analyzer and a Seahorse XF Cell Mito Stress Test Assay (Agilent Technologies). Mitochondrial functionality was examined by direct measurement of the OCR of cells according to the manufacturer's instructions. Briefly, 8×10^4 PTCs were seeded into 24-well plates and allowed to attach overnight. The cells were subjected to OCR detection by sequential injections of oligomycin, carbonyl cyanide p-trifluoromethoxyphenylhydrazone (FCCP), and a combination of rotenone and antimycin A. Basal OCR=measured OCR level before the injection of oligomycin. Adenosine triphosphate (ATP) synthesis-linked OCR (ATP-linked)=basal OCR−OCR following oligomycin injection. […]

[6] = within 24 hours of administration; cited from earlier work
[7] = tested on: CreERT2+/−, APE2LSL/− mice; assay: APE2-ASO treatment of transgenic CreERT2+/−, APE2LSL/− mice (APE2 AKI mouse model); format: in vivo; conditions: for kidney function: treated 4 weeks, once per week
Source text: as §5, §6

APE2 [8] = assay: PK/PD study in C57B6 mice, APE2 expression by western blot; format: in vivo, mouse
Protocol: Further optimization of the ASO drug. Potential ASO toxicities fall into two categories: (i) hybridization-dependent toxicities due to on- or off-target events, and (ii) hybridization-independent toxicities, such as excessive immunostimulation due to non-antisense effects of the ASO. We performed the PK/PD study using C57B6 mice. We IP injected six weeks old male mice with 20 mg/kg APE2-ASO and checked the APE2 expression by western blot analysis. We found the APE2 could be knock down in two days and restored in 4 days after injection (FIG. 9).

[9] = 20 mg/kg IP, six weeks old male C57B6 mice

Molecule: O=C1[O][Pt]2([NH][C@@H]3CCCC[C@H]3[NH]2)[O]C1=O [oxaliplatin]
- APE2 expression in kidney cells (APE2 [1]): slight upregulation

Molecule: N.N.O=C([O-])C1(C(=O)[O-])CCC1.[Pt+2] [carboplatin]
- APE2 expression in kidney cells (APE2 [1]): slight upregulation

Molecule: N.N.[Cl][Pt][Cl] [cisplatin]
- APE2 expression in kidney (APE2 [1]; cisplatin 15 mg/kg single intraperitoneal dose, kidney collected 3 days after treatment): the most highly upregulated protein
- APE1 expression in kidney (APE1): slightly upregulated
- LIG3 expression in kidney (LIG3): slightly upregulated
- MRE11 expression in kidney (MRE11): slightly upregulated
- CTIP expression in kidney (CTIP): slightly upregulated
- PCNA expression in kidney (PCNA): downregulated
- APE2 protein in PTCs by IHC (APE2 [2]): dramatically upregulated
- APE2 subcellular localization (APE2 [3]): enriched in the cytoplasm, especially within mitochondria
- APE2 subcellular localization (APE2 [4]): enriched in the cytoplasm, especially within mitochondria
- kidney damage [5]: only minor kidney damage
- kidney weight [5]: decreased kidney weight
- mitochondrial fragmentation (EM) [5]: less mitochondrial fragmentation
- renal damage [5]: most severe
- OCR in PTCs (primary PTCs): significantly increased
- cisplatin excreted via the urine [6]: 50%-80%

Molecule: mU*mG*mU*C*C*T*T*A*C*A*G*A*A*mG*mG*mU (UGUCCTTACAGAAGGU; sugars from the 5' end m3 d10 m3, all phosphorothioate, methylation of C not given here) [APE2-ASO-3]
- plasma creatine level ([7]; compared with saline treated controls, P<0.01): significantly reduced
- mitochondrial morphology (EM) ([7]; compared with vehicle treated mice, age of eight weeks): remained relatively normal
- kidney function [7]: protected
- kidney function ([7]; listed as APE2-ASO gapmer drug): protected kidney function
- time to APE2 knock down after injection (APE2 [8]; [9]): two
- time to restored APE2 expression after injection (APE2 [8]; [9]): 4 days
- APE2 level (APE2 [8]; wild type C57B6 mice): knock down
